Consider 60 compounds from EP1247803A2, “Indolinone compounds suitable for modulation of protein kinases” (Sugen, Inc., priority 1996, dated 1998).

One experiment addresses T1, EGFR (Homo sapiens, UniProt P00533).
T1 construct: Add 7 ug A431 cell lysate per well (EGFR source); endogenous in cells; host or cells: A431
Briefly: EGFR ELISA assay (in vitro kinase activity, EGFR captured from A431 cell lysate). It counts as biochemical. Further details: concentration or dose not given beside the values. The gist of the method: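 EGFR from A431 lysate was captured on plates coated with anti-EGFR antibody. Compounds were added 30 min before a 5 min phosphorylation with 3 µM ATP/5 mM MnCl2, which was stopped with 20 mM EDTA. Phosphotyrosine was detected with rabbit anti-phosphotyrosine, then a peroxidase-conjugated secondary and ABTS/H2O2, read at 410 nm.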

The target in the next experiment is PDGF-R (Homo sapiens, UniProt P09619). The experiment can be described thus: PDGF-R ELISA. It counts as cell-based. From the text:
A PDGF-R ELISA is described in International Patent Publication No. WO 96/40116, published December 19, 1996 by Tang et al.
For orientation: ELISA stands for enzyme-linked immunosorbent assay.

T1 sequence (P00533 25-1210): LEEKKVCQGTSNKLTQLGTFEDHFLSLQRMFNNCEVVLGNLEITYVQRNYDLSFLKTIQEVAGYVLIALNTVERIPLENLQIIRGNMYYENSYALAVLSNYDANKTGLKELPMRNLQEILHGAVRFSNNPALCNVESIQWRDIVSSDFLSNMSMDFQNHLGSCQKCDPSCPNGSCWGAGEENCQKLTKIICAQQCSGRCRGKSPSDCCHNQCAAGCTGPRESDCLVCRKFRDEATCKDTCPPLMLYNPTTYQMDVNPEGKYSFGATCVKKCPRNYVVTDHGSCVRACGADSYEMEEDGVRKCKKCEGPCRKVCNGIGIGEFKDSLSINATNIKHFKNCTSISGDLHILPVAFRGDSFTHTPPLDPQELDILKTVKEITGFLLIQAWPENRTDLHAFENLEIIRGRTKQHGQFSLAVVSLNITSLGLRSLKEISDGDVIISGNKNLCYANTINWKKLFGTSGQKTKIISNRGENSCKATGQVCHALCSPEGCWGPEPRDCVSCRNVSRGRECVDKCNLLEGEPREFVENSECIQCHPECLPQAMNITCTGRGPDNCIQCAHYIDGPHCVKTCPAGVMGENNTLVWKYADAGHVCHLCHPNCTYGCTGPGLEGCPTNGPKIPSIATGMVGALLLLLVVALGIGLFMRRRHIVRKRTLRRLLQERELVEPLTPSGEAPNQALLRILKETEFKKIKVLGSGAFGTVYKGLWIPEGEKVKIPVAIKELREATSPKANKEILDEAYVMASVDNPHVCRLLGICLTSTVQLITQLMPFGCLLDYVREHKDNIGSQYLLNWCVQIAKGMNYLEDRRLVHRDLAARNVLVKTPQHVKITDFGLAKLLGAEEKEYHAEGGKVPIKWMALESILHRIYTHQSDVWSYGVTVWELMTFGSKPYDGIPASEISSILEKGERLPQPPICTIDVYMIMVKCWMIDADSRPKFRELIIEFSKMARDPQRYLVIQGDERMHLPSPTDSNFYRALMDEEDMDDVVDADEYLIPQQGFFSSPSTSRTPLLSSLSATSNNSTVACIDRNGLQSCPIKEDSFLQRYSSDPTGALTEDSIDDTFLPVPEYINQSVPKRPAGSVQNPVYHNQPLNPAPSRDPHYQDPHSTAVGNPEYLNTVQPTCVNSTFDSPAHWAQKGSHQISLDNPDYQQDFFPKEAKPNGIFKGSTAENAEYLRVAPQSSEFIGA
Chain of PDGF-R (P09619 33-1106, species assumed): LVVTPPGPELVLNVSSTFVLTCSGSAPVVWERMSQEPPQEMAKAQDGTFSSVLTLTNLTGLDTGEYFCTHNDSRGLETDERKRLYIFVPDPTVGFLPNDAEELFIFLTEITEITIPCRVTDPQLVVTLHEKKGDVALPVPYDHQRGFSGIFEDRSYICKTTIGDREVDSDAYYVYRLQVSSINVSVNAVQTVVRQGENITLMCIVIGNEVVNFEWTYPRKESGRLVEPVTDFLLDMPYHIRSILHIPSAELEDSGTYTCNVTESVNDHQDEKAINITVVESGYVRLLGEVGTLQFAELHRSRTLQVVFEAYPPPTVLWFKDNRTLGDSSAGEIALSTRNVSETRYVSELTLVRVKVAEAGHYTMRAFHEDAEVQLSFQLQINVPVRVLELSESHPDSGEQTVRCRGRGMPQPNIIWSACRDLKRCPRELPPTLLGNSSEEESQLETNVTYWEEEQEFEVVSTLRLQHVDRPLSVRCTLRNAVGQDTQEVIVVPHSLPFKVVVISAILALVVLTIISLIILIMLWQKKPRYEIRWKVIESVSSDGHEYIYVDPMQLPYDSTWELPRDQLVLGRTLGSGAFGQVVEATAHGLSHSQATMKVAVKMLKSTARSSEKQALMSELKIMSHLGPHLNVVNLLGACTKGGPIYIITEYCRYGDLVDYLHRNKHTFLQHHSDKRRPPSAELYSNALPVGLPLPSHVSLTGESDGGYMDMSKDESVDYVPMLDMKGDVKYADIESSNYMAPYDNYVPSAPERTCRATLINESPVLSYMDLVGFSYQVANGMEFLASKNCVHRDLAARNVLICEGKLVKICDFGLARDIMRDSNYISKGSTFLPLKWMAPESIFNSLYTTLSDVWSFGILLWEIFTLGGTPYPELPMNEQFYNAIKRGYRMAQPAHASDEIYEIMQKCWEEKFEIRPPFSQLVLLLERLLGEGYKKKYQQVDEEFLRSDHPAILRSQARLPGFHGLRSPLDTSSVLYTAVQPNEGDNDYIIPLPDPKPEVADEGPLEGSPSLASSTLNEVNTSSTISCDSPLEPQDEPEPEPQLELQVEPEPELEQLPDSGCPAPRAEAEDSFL

In the case of `CC(C)(C)c1cc(C=C2C(=O)Nc3ccc(S(=O)(=O)Nc4ccc(C(F)(F)F)cc4)cc32)cc(C(C)(C)C)c1O` [10721/E11], the “Biochem EGFR %Inhibition” value at EGFR is given as 32.1%.
Still for that read-out and setting: in the case of `CNS(=O)(=O)c1ccc2c(c1)C(=Cc1ccc(Br)cc1)C(=O)N2` [10717/D08] it was -7.8%.
Turning to `Cc1cc(C=C2C(=O)Nc3c(Br)cc(Br)cc32)cc(C)c1O` [10722/A07], the “PDGF Kinase %Inhibition” value on PDGF-R is reported as 23.8%. Also, the “Biochem EGFR %Inhibition” value on EGFR is recorded as 29.9%.
Regarding `Cn1c(C=C2C(=O)Nc3ccc(S(=O)(=O)N4CCOCC4)cc32)nc2ccccc21` [10721/F02], the “Biochem EGFR %Inhibition” value at EGFR is on record as 11.0%.
Still for that read-out and setting: as for `Cn1c(C=C2C(=O)Nc3ccc(S(=O)(=O)Nc4ccc(C(F)(F)F)cc4)cc32)nc2ccccc21` [10721/E02], the figure is -9.5%.
The same measure, in the same setting: as for `O=C1Nc2ccc(S(=O)(=O)N3CCOCC3)cc2C1=Cc1ccc(Cl)s1` [10721/F07], the figure is 3.5%; as for `CC(C)(C)c1cc(C=C2C(=O)Nc3ccc(S(=O)(=O)N4CCOCC4)cc32)ccc1O` [10721/F09], 7.0%.
With `CNS(=O)(=O)c1ccc2c(c1)C(=Cc1cc(C)c(O)c(C)c1)C(=O)N2` [10722/D07], on PDGF-R, the “PDGF Kinase %Inhibition” value is given as 25.5%. Further, the “Biochem EGFR %Inhibition” value on EGFR is recorded as -2.8%.
Regarding `CNS(=O)(=O)c1ccc2c(c1)C(=Cc1ccc(F)cc1)C(=O)N2` [10717/D05], the “Biochem EGFR %Inhibition” value on EGFR is -2.8%.
With `CC(C)(C)c1cc(C=C2C(=O)Nc3ccc(I)cc32)cc([N+](=O)[O-])c1O` [10722/B02], the “PDGF Kinase %Inhibition” value at PDGF-R is listed as 28.9%. For the same compound, on EGFR, the “Biochem EGFR %Inhibition” value amounted to 16.3%.
On the same counts, the results for `CCCCN(CCCC)c1ccc(C=C2C(=O)Nc3ccc(I)cc32)cc1` [10722/B10] are 20.3% and -11.3%.
As to `CC(C)(C)c1cc(C=C2C(=O)Nc3ccc(S(=O)(=O)Nc4ccc(C(F)(F)F)cc4)cc32)ccc1O` [10721/E09], at EGFR, the “Biochem EGFR %Inhibition” value is given as 42.5%.
The same measure, in the same setting: in the case of `CCOc1ccccc1C=C1C(=O)Nc2ccc(S(=O)(=O)NC)cc21` [10717/D02] it was 10.1%.
The same measure, in the same setting: in the case of `CNS(=O)(=O)c1ccc2c(c1)C(=Cc1c(O)cccc1OC)C(=O)N2` [10717/D10] it was 3.5%; in that of `CNS(=O)(=O)c1ccc2c(c1)C(=Cc1ccc(C)s1)C(=O)N2` [10717/D07], -4.5%.
Consider `O=C1Nc2ccc(I)cc2C1=Cc1ccc(C(F)(F)F)cc1` [10722/B11], for which the “PDGF Kinase %Inhibition” value on PDGF-R was 25.5%. Besides, on EGFR, the “Biochem EGFR %Inhibition” value was -15.5%.
Take `CC(C)(C)c1cc(C=C2C(=O)Nc3ccc(S(=O)(=O)N4CCOCC4)cc32)cc(Br)c1O` [10721/F10]: the “Biochem EGFR %Inhibition” value on EGFR worked out at 7.5%.
With `CCCCN(CCCC)c1ccc(C=C2C(=O)Nc3ccc(S(=O)(=O)NC)cc32)cc1` [10722/D10], the “PDGF Kinase %Inhibition” value on PDGF-R worked out at 41.5%. For the same compound, the “Biochem EGFR %Inhibition” value at EGFR is recorded as -0.6%.
On the same counts, the results for `CC(C)(C)c1cc(C=C2C(=O)Nc3ccc(S(=O)(=O)Nc4ccc(C(F)(F)F)cc4)cc32)cc([N+](=O)[O-])c1O` [10722/E02] are 23.2% and 22.2%.
As to `O=C1Nc2ccc(S(=O)(=O)N3CCOCC3)cc2C1=Cc1cc2c([nH]1)CCCC2` [10721/F05], the “Biochem EGFR %Inhibition” value at EGFR was 20.5%.
Take `O=C1Nc2c(Br)cc(Br)cc2C1=Cc1ccc([N+](=O)[O-])s1` [10722/A04]: the “PDGF Kinase %Inhibition” value at PDGF-R is -0.9%. Further, the “Biochem EGFR %Inhibition” value on EGFR was found to be 21.0%.
In the case of `O=C1Nc2ccc(CCCl)cc2C1=Cc1cc2c([nH]1)CCCC2` [10721/G05], the “Biochem EGFR %Inhibition” value on EGFR is listed as 7.7%.
`CC(C)(C)c1cc(C=C2C(=O)Nc3c(Br)cc(Br)cc32)cc(Cl)c1O` [10722/A08]: the “PDGF Kinase %Inhibition” value at PDGF-R was determined as 15.2%. The “Biochem EGFR %Inhibition” value on EGFR was found to be 23.9%.
Consider `Cc1cc(C)c(C=C2C(=O)Nc3ccc(S(=O)(=O)N4CCOCC4)cc32)[nH]1` [10721/F08], for which the “Biochem EGFR %Inhibition” value at EGFR came to 37.3%.
In the case of `CNS(=O)(=O)c1ccc2c(c1)C(=Cc1csc([N+](=O)[O-])c1)C(=O)N2` [10722/D09], the “PDGF Kinase %Inhibition” value at PDGF-R came to 30.6%. At EGFR, the “Biochem EGFR %Inhibition” value is reported as -17.2%.
On the same counts, the results for `CNS(=O)(=O)c1ccc2c(c1)C(=Cc1ccc([N+](=O)[O-])s1)C(=O)N2` [10722/D04] are 15.7% and 20.3%.
With `CNS(=O)(=O)c1ccc2c(c1)C(=Cc1cc(C(C)(C)C)c(O)c(C(C)(C)C)c1)C(=O)N2` [10721/D11], on EGFR, the “Biochem EGFR %Inhibition” value is on record as 22.2%.
With `O=C1Nc2c(Br)cc(Br)cc2C1=Cc1c(O)cc(O)cc1O` [10722/A03], the “PDGF Kinase %Inhibition” value at PDGF-R worked out at 29.5%. Also, on EGFR, the “Biochem EGFR %Inhibition” value stood at 0.8%.
On the same counts, the results for `O=C1Nc2c(Br)cc(Br)cc2C1=Cc1ccc(C(F)(F)F)cc1` [10722/A11] are 21.5% and -0.1%.
On the same counts, the results for `CC(C)(C)c1cc(C=C2C(=O)Nc3ccc(S(=O)(=O)Nc4ccc(C(F)(F)F)cc4)cc32)cc(Cl)c1O` [10722/E08] are 38.7% and 10.4%.
For `CC(C)(C)c1cc(C=C2C(=O)Nc3ccc(CCCl)cc32)cc(C(C)(C)C)c1O` [10721/G11], the “Biochem EGFR %Inhibition” value on EGFR was determined as 0.4%.
`CNS(=O)(=O)c1ccc2c(c1)C(=Cc1cc(Cl)c(O)c(C(C)(C)C)c1)C(=O)N2` [10722/D08]: the “PDGF Kinase %Inhibition” value on PDGF-R was 41.5%. In addition, at EGFR, the “Biochem EGFR %Inhibition” value is -2.6%.
Regarding `CC(C)(C)c1cc(C=C2C(=O)Nc3ccc(S(=O)(=O)N4CCOCC4)cc32)cc(C(C)(C)C)c1O` [10721/F11], at EGFR, the “Biochem EGFR %Inhibition” value was 95.9%.
Turning to `O=C1Nc2ccc(S(=O)(=O)Nc3ccc(C(F)(F)F)cc3)cc2C1=Cc1ccc(F)cc1F` [10722/E06], the “PDGF Kinase %Inhibition” value at PDGF-R was 32.9%. For the same compound, on EGFR, the “Biochem EGFR %Inhibition” value is reported as 7.6%.
Consider `CNS(=O)(=O)c1ccc2c(c1)C(=Cc1cccn1C)C(=O)N2` [10717/D04], for which the “Biochem EGFR %Inhibition” value on EGFR stood at 4.9%.
On the same count and under the same terms, in the case of `CC(C)(C)c1cc(C=C2C(=O)Nc3ccc(S(=O)(=O)Nc4ccc(C(F)(F)F)cc4)cc32)cc(Br)c1O` [10721/E10] it was 19.9%; in that of `O=C1Nc2ccc(S(=O)(=O)Nc3ccc(C(F)(F)F)cc3)cc2C1=Cc1ccc(Cl)s1` [10721/E07], 37.7%.
Regarding `O=C1Nc2ccc(S(=O)(=O)Nc3ccc(C(F)(F)F)cc3)cc2C1=Cc1ccc(C(=O)O)cc1` [10722/E05], the “PDGF Kinase %Inhibition” value on PDGF-R came out at 19.2%. Further, the “Biochem EGFR %Inhibition” value at EGFR was -7.0%.
For `CNS(=O)(=O)c1ccc2c(c1)C(=Cc1ccc(C(F)(F)F)cc1)C(=O)N2` [10722/D11], the “PDGF Kinase %Inhibition” value on PDGF-R is 15.2%. Further, on EGFR, the “Biochem EGFR %Inhibition” value is -10.1%.
In the case of `Cn1cc(Cl)c(C=C2C(=O)Nc3ccc(S(=O)(=O)N4CCOCC4)cc32)n1` [10721/F03], on EGFR, the “Biochem EGFR %Inhibition” value is given as 7.0%.
On the same count and under the same terms, in the case of `CNS(=O)(=O)c1ccc2c(c1)C(=Cc1c[nH]c3ccccc13)C(=O)N2` [10717/D06] it was -23.4%; in that of `Cc1cc(C=C2C(=O)Nc3ccc(S(=O)(=O)N4CCOCC4)cc32)sc1C` [10721/F04], 0.0%; in that of `Cn1cc(Cl)c(C=C2C(=O)Nc3ccc(S(=O)(=O)Nc4ccc(C(F)(F)F)cc4)cc32)n1` [10721/E03], 25.1%.
Still for that read-out and setting: in the case of `Cc1cc(C=C2C(=O)Nc3ccc(S(=O)(=O)Nc4ccc(C(F)(F)F)cc4)cc32)sc1C` [10721/E04] it was 48.5%.
On to `Cn1c(C=C2C(=O)Nc3ccc(CCCl)cc32)nc2ccccc21` [10721/G02], for which the “Biochem EGFR %Inhibition” value at EGFR stood at 23.6%.
Still for that read-out and setting: as for `Cc1cc(C)c(C=C2C(=O)Nc3ccc(CCCl)cc32)[nH]1` [10721/G08], the figure is 12.8%; as for `Cn1cc(Cl)c(C=C2C(=O)Nc3ccc(CCCl)cc32)n1` [10721/G03], 23.4%; as for `O=C1Nc2ccc(CCCl)cc2C1=Cc1cc([N+](=O)[O-])cc(CCl)c1O` [10721/G06], 23.2%.
Same read-out and setting: in the case of `O=C1Nc2ccc(S(=O)(=O)Nc3ccc(C(F)(F)F)cc3)cc2C1=Cc1cc2c([nH]1)CCCC2` [10721/E05] it was 61.3%; in that of `O=C1Nc2ccc(S(=O)(=O)Nc3ccc(C(F)(F)F)cc3)cc2C1=Cc1cc([N+](=O)[O-])cc(CCl)c1O` [10721/E06], 91.5%; in that of `CNS(=O)(=O)c1ccc2c(c1)C(=Cc1cccs1)C(=O)N2` [10717/D03], -1.4%.
Same read-out and setting: in the case of `CC(C)(C)c1cc(C=C2C(=O)Nc3ccc(CCCl)cc32)ccc1O` [10721/G09] it was 14.9%; in that of `CNS(=O)(=O)c1ccc2c(c1)C(=Cc1ccc[nH]1)C(=O)N2` [10717/D09], 6.8%; in that of `O=C1Nc2ccc(CCCl)cc2C1=Cc1ccc(Cl)s1` [10721/G07], 14.7%.
For the compound `CC(C)(C)c1cc(C=C2C(=O)Nc3ccc(CCCl)cc32)cc(Br)c1O` [10721/G10], the “Biochem EGFR %Inhibition” value at EGFR is recorded as 2.1%.
The same measure, in the same setting: in the case of `Cc1cc(C=C2C(=O)Nc3ccc(CCCl)cc32)sc1C` [10721/G04] it was 64.6%; in that of `O=C1Nc2ccc(S(=O)(=O)N3CCOCC3)cc2C1=Cc1cc([N+](=O)[O-])cc(CCl)c1O` [10721/F06], 21.7%.
With `O=C1Nc2c(Br)cc(Br)cc2C1=Cc1cccs1` [10717/A03], the “Biochem EGFR %Inhibition” value at EGFR worked out at 1.0%.
Still for that read-out and setting: as for `CNS(=O)(=O)c1ccc2c(c1)C(=Cc1cc(Br)c(O)c(C(C)(C)C)c1)C(=O)N2` [10721/D10], the figure is 3.3%.
Same read-out and setting: in the case of `Cc1cc(C)c(C=C2C(=O)Nc3ccc(S(=O)(=O)Nc4ccc(C(F)(F)F)cc4)cc32)[nH]1` [10721/E08] it was 29.8%.
